Patent publication US20090156518A1, “STABLE PHARMACEUTICAL COMPOSITION COMPRISING BETA-LACTAM ANTIBIOTIC AND BUFFER” (priority 2006, published 2009)

Experiment: amounts of β-lactam antibiotic, β-lactamase inhibitor (C18 reverse-phase LC, UV-VIS) and aminoglycoside (HPLC-ELSD) in solution over time
Type: physicochemical
Procedure: The amounts of β-lactam antibiotics and β-lactamase inhibitor were determined using C18 reverse-phase LC and UV-VIS detector (Tianjin Hemay BioTech Co., Ltd., analysis method No. HM-K-03). The content of aminoglycoside antibiotics was measured using reverse-phase HPLC and evaporation-light-scattering detector (ELSD detector) (Tianjin Hemay BioTech Co., Ltd., analysis method No. HM-K-08). The amount of antibiotic component at each time point was expressed as a percentage with respect to the amount at the initial time (herein defined as 100%). The relative amount of each antibiotic component in the composition at each time point was expressed as peak area ratio with respect to the corresponding peak area of an external standard.

CCN[C@@H]1C[C@H](N)[C@@H](O[C@H]2O[C@H](CN)CC[C@H]2N)[C@H](O)[C@H]1O[C@H]1OC[C@](C)(O)[C@H](NC)[C@H]1O.O=S(=O)(O)O [Etimicin sulfate, etimicin sulfate]
amount of component as percentage with respect to the amount at the initial time (Example 6: freeze-dried cefoperazone sodium 4 g, sulbactam sodium 1 g, citrate pH 6.75, + etimicin sulfate 200 mg, 7 days 0° C., dissolved in 100 mL water, Time 0 h): 108.9%
amount of component as percentage with respect to the amount at the initial time (Example 6: freeze-dried cefoperazone sodium 4 g, sulbactam sodium 1 g, citrate pH 6.75, + etimicin sulfate 200 mg, 7 days 0° C., dissolved in 100 mL water, Time 1 h): 100.2%
amount of component as percentage with respect to the amount at the initial time (Example 6: freeze-dried cefoperazone sodium 4 g, sulbactam sodium 1 g, citrate pH 6.75, + etimicin sulfate 200 mg, 7 days 0° C., dissolved in 100 mL water, Time 2 h): 100.5%
amount of component as percentage with respect to the amount at the initial time (Example 6: freeze-dried cefoperazone sodium 4 g, sulbactam sodium 1 g, citrate pH 6.75, + etimicin sulfate 200 mg, 7 days 0° C., dissolved in 100 mL water, Time 4 h): 100.4%
amount of component as percentage with respect to the amount at the initial time (Example 6: freeze-dried cefoperazone sodium 4 g, sulbactam sodium 1 g, citrate pH 6.75, + etimicin sulfate 200 mg, 7 days 0° C., dissolved in 100 mL water, Time 6 h): 100.4%
amount of component as percentage with respect to the amount at the initial time (Example 6: freeze-dried cefoperazone sodium 4 g, sulbactam sodium 1 g, citrate pH 6.75, + etimicin sulfate 200 mg, 7 days 0° C., dissolved in 100 mL water, Time 8 h): 97.50%
amount of component as percentage with respect to the amount at the initial time (Example 10: mezlocillin sodium 2 g, sulbactam sodium 0.5 g, etimicin sulfate 200 mg, citrate pH 6.5, 200 mL water, room temperature, Time 0 h): 100.1%
amount of component as percentage with respect to the amount at the initial time (Example 10: mezlocillin sodium 2 g, sulbactam sodium 0.5 g, etimicin sulfate 200 mg, citrate pH 6.5, 200 mL water, room temperature, Time 1 h): 100.6%
amount of component as percentage with respect to the amount at the initial time (Example 10: mezlocillin sodium 2 g, sulbactam sodium 0.5 g, etimicin sulfate 200 mg, citrate pH 6.5, 200 mL water, room temperature, Time 2 h): 99.79%
amount of component as percentage with respect to the amount at the initial time (Example 11: freeze-dried mezlocillin sodium, sulbactam sodium, citrate pH 6.5, 7 days 0° C., in 100 mL 5% fructose + etimicin sulfate 200 mg, Time 0 h): 100.1%
amount of component as percentage with respect to the amount at the initial time (Example 11: freeze-dried mezlocillin sodium, sulbactam sodium, citrate pH 6.5, 7 days 0° C., in 100 mL 5% fructose + etimicin sulfate 200 mg, Time 1 h): 100.4%
amount of component as percentage with respect to the amount at the initial time (Example 11: freeze-dried mezlocillin sodium, sulbactam sodium, citrate pH 6.5, 7 days 0° C., in 100 mL 5% fructose + etimicin sulfate 200 mg, Time 2 h): 99.31%
amount of component as percentage with respect to the amount at the initial time (Example 11: freeze-dried mezlocillin sodium, sulbactam sodium, citrate pH 6.5, 7 days 0° C., in 100 mL 5% fructose + etimicin sulfate 200 mg, Time 4 h): 99.56%
amount of component as percentage with respect to the amount at the initial time (Example 11: freeze-dried mezlocillin sodium, sulbactam sodium, citrate pH 6.5, 7 days 0° C., in 100 mL 5% fructose + etimicin sulfate 200 mg, Time 6 h): 99.61%
amount of component as percentage with respect to the amount at the initial time (Example 11: freeze-dried mezlocillin sodium, sulbactam sodium, citrate pH 6.5, 7 days 0° C., in 100 mL 5% fructose + etimicin sulfate 200 mg, Time 8 h): 99.25%

CO/N=C(\C(=O)N[C@@H]1C(=O)N2C(C(=O)O)=C(CSc3nc(C)c(CC(=O)O)s3)CS[C@H]12)c1csc(N)n1 [Cefodizime sodium]
amount of component as percentage with respect to the amount at the initial time (Example 12: freeze-dried cefodizime sodium, citrate pH 6.75, 7 days 0° C., in 100 mL 5% fructose + etimicin sulfate 200 mg, Time 0 h): 99.01%
amount of component as percentage with respect to the amount at the initial time (Example 12: freeze-dried cefodizime sodium, citrate pH 6.75, 7 days 0° C., in 100 mL 5% fructose + etimicin sulfate 200 mg, Time 1 h): 103.8%
amount of component as percentage with respect to the amount at the initial time (Example 12: freeze-dried cefodizime sodium, citrate pH 6.75, 7 days 0° C., in 100 mL 5% fructose + etimicin sulfate 200 mg, Time 2 h): 98.33%
amount of component as percentage with respect to the amount at the initial time (Example 12: freeze-dried cefodizime sodium, citrate pH 6.75, 7 days 0° C., in 100 mL 5% fructose + etimicin sulfate 200 mg, Time 4 h): 98.99%
amount of component as percentage with respect to the amount at the initial time (Example 12: freeze-dried cefodizime sodium, citrate pH 6.75, 7 days 0° C., in 100 mL 5% fructose + etimicin sulfate 200 mg, Time 6 h): 97.89%
amount of component as percentage with respect to the amount at the initial time (Example 12: freeze-dried cefodizime sodium, citrate pH 6.75, 7 days 0° C., in 100 mL 5% fructose + etimicin sulfate 200 mg, Time 8 h): 92.52%
amount of component as percentage with respect to the amount at the initial time (Example 18: cefodizime sodium 1 g, etimicin sulfate 200 mg, citrate pH 6.75, 200 mL water, room temperature, Time 0 h): 99.01%
amount of component as percentage with respect to the amount at the initial time (Example 18: cefodizime sodium 1 g, etimicin sulfate 200 mg, citrate pH 6.75, 200 mL water, room temperature, Time 1 h): 103.8%
amount of component as percentage with respect to the amount at the initial time (Example 18: cefodizime sodium 1 g, etimicin sulfate 200 mg, citrate pH 6.75, 200 mL water, room temperature, Time 2 h): 98.33%
amount of component as percentage with respect to the amount at the initial time (Example 18: cefodizime sodium 1 g, etimicin sulfate 200 mg, citrate pH 6.75, 200 mL water, room temperature, Time 4 h): 98.99%
amount of component as percentage with respect to the amount at the initial time (Example 18: cefodizime sodium 1 g, etimicin sulfate 200 mg, citrate pH 6.75, 200 mL water, room temperature, Time 6 h): 97.89%
amount of component as percentage with respect to the amount at the initial time (Example 18: cefodizime sodium 1 g, etimicin sulfate 200 mg, citrate pH 6.75, 200 mL water, room temperature, Time 8 h): 92.52%

CO/N=C(\C(=O)N[C@@H]1C(=O)N2C(C(=O)O)=C(CSc3nc(=O)c(=O)[nH]n3C)CS[C@H]12)c1csc(N)n1 [Ceftriaxone sodium]
amount of component as percentage with respect to the amount at the initial time (Example 7: ceftriaxone sodium 4 g, sulbactam sodium 1 g, gentamicin sulfate 80 mg, citrate pH 6.75, 200 mL water, room temperature (22° C.), Time 0 h): 97.01%
amount of component as percentage with respect to the amount at the initial time (Example 7: ceftriaxone sodium 4 g, sulbactam sodium 1 g, gentamicin sulfate 80 mg, citrate pH 6.75, 200 mL water, room temperature (22° C.), Time 1 h): 100.3%
amount of component as percentage with respect to the amount at the initial time (Example 7: ceftriaxone sodium 4 g, sulbactam sodium 1 g, gentamicin sulfate 80 mg, citrate pH 6.75, 200 mL water, room temperature (22° C.), Time 2 h): 96.40%
amount of component as percentage with respect to the amount at the initial time (Example 7: ceftriaxone sodium 4 g, sulbactam sodium 1 g, gentamicin sulfate 80 mg, citrate pH 6.75, 200 mL water, room temperature (22° C.), Time 4 h): 99.01%
amount of component as percentage with respect to the amount at the initial time (Example 7: ceftriaxone sodium 4 g, sulbactam sodium 1 g, gentamicin sulfate 80 mg, citrate pH 6.75, 200 mL water, room temperature (22° C.), Time 6 h): 98.91%
amount of component as percentage with respect to the amount at the initial time (Example 7: ceftriaxone sodium 4 g, sulbactam sodium 1 g, gentamicin sulfate 80 mg, citrate pH 6.75, 200 mL water, room temperature (22° C.), Time 8 h): 99.53%
amount of component as percentage with respect to the amount at the initial time (Example 8: freeze-dried ceftriaxone sodium, tazobactam sodium, gentamicin sulfate, citrate pH 6.75, 2.5% fructose, 7 days 0° C., in 100 mL water, Time 0 h): 98.75%
amount of component as percentage with respect to the amount at the initial time (Example 8: freeze-dried ceftriaxone sodium, tazobactam sodium, gentamicin sulfate, citrate pH 6.75, 2.5% fructose, 7 days 0° C., in 100 mL water, Time 1 h): 100.1%
amount of component as percentage with respect to the amount at the initial time (Example 8: freeze-dried ceftriaxone sodium, tazobactam sodium, gentamicin sulfate, citrate pH 6.75, 2.5% fructose, 7 days 0° C., in 100 mL water, Time 2 h): 99.97%
amount of component as percentage with respect to the amount at the initial time (Example 8: freeze-dried ceftriaxone sodium, tazobactam sodium, gentamicin sulfate, citrate pH 6.75, 2.5% fructose, 7 days 0° C., in 100 mL water, Time 4 h): 98.87%
amount of component as percentage with respect to the amount at the initial time (Example 8: freeze-dried ceftriaxone sodium, tazobactam sodium, gentamicin sulfate, citrate pH 6.75, 2.5% fructose, 7 days 0° C., in 100 mL water, Time 6 h): 99.27%
amount of component as percentage with respect to the amount at the initial time (Example 8: freeze-dried ceftriaxone sodium, tazobactam sodium, gentamicin sulfate, citrate pH 6.75, 2.5% fructose, 7 days 0° C., in 100 mL water, Time 8 h): 100.5%
amount of component as percentage with respect to the amount at the initial time (Example 9: freeze-dried ceftriaxone sodium, citrate pH 6.75, 7 days 0° C., in 100 mL 5% fructose solution, Time 0 h): 97.27%
amount of component as percentage with respect to the amount at the initial time (Example 9: freeze-dried ceftriaxone sodium, citrate pH 6.75, 7 days 0° C., in 100 mL 5% fructose solution, Time 1 h): 99.38%
amount of component as percentage with respect to the amount at the initial time (Example 9: freeze-dried ceftriaxone sodium, citrate pH 6.75, 7 days 0° C., in 100 mL 5% fructose solution, Time 2 h): 99.95%
amount of component as percentage with respect to the amount at the initial time (Example 9: freeze-dried ceftriaxone sodium, citrate pH 6.75, 7 days 0° C., in 100 mL 5% fructose solution, Time 4 h): 97.81%
amount of component as percentage with respect to the amount at the initial time (Example 9: freeze-dried ceftriaxone sodium, citrate pH 6.75, 7 days 0° C., in 100 mL 5% fructose solution, Time 6 h): 99.03%
amount of component as percentage with respect to the amount at the initial time (Example 9: freeze-dried ceftriaxone sodium, citrate pH 6.75, 7 days 0° C., in 100 mL 5% fructose solution, Time 8 h): 98.51%
amount of component as percentage with respect to the amount at the initial time (Example 19: ceftriaxone sodium 2 g, sulbactam sodium 2 g, gentamicin sulfate 160 mg, citrate pH 6.75, 200 mL water, room temperature, Time 0 h): 97.01%
amount of component as percentage with respect to the amount at the initial time (Example 19: ceftriaxone sodium 2 g, sulbactam sodium 2 g, gentamicin sulfate 160 mg, citrate pH 6.75, 200 mL water, room temperature, Time 1 h): 100.3%
amount of component as percentage with respect to the amount at the initial time (Example 19: ceftriaxone sodium 2 g, sulbactam sodium 2 g, gentamicin sulfate 160 mg, citrate pH 6.75, 200 mL water, room temperature, Time 2 h): 96.40%
amount of component as percentage with respect to the amount at the initial time (Example 19: ceftriaxone sodium 2 g, sulbactam sodium 2 g, gentamicin sulfate 160 mg, citrate pH 6.75, 200 mL water, room temperature, Time 4 h): 99.01%
amount of component as percentage with respect to the amount at the initial time (Example 19: ceftriaxone sodium 2 g, sulbactam sodium 2 g, gentamicin sulfate 160 mg, citrate pH 6.75, 200 mL water, room temperature, Time 6 h): 98.91%
amount of component as percentage with respect to the amount at the initial time (Example 19: ceftriaxone sodium 2 g, sulbactam sodium 2 g, gentamicin sulfate 160 mg, citrate pH 6.75, 200 mL water, room temperature, Time 8 h): 99.53%
amount of component as percentage with respect to the amount at the initial time (Example 20: ceftriaxone sodium 2 g, tazobactam sodium 2 g, gentamicin sulfate 160 mg, citrate pH 6.75, 200 mL water, room temperature, Time 0 h): 98.75%
amount of component as percentage with respect to the amount at the initial time (Example 20: ceftriaxone sodium 2 g, tazobactam sodium 2 g, gentamicin sulfate 160 mg, citrate pH 6.75, 200 mL water, room temperature, Time 1 h): 100.1%
amount of component as percentage with respect to the amount at the initial time (Example 20: ceftriaxone sodium 2 g, tazobactam sodium 2 g, gentamicin sulfate 160 mg, citrate pH 6.75, 200 mL water, room temperature, Time 2 h): 99.97%
amount of component as percentage with respect to the amount at the initial time (Example 20: ceftriaxone sodium 2 g, tazobactam sodium 2 g, gentamicin sulfate 160 mg, citrate pH 6.75, 200 mL water, room temperature, Time 4 h): 98.87%
amount of component as percentage with respect to the amount at the initial time (Example 20: ceftriaxone sodium 2 g, tazobactam sodium 2 g, gentamicin sulfate 160 mg, citrate pH 6.75, 200 mL water, room temperature, Time 6 h): 99.27%
amount of component as percentage with respect to the amount at the initial time (Example 20: ceftriaxone sodium 2 g, tazobactam sodium 2 g, gentamicin sulfate 160 mg, citrate pH 6.75, 200 mL water, room temperature, Time 8 h): 100.5%
